Test results reported in ChEMBL document CHEMBL3808352, “Pyrazolylamine Derivatives Reveal the Conformational Switching between Type I and Type II Binding Modes of Anaplastic Lymphoma Kinase (ALK)” (J Med Chem, 2016).

Experiment: Lipophilicity, log P of the compound
Type: physicochemical
Conditions: octanol/water

Compound | logP
Cc1cc(-c2cc(NC(=O)c3ccc(CN4CCN(C)CC4)cc3)[nH]n2)ccc1N | 2.61
Cc1cc(-c2cc(NC(=O)c3ccc(CN4CCN(C)CC4)cc3)[nH]n2)ccc1NC(=O)Nc1cc(C(C)(C)C)on1 | 4.54
